Measured values taken from US10519098B2, “Aromatic derivatives as anti-malarial” (Council of Scientific & Industrial Research, priority 2014, dated 2019).
Where two headings read alike, the source gives them in different places.

Legend:
[1] = test system: Chloroquine-sensitive (3D7) strain of P. falciparum; assay: Malaria SYBR Green I-based fluorescence (MSF) assay, 3D7 strain; assay type: cell-based; settings: Plasmodium falciparum
Protocol: (§1) The stock (5 mg/mL or 10 mM) solutions of extracts were prepared in DMSO and required dilutions were made in culture medium.
(§2) Two-fold serial dilutions of test samples were made in 96 well plates and incubated with 1.0% parasitized cell suspension containing 0.8% parasitaemia (Asynchronous culture with more than 80% ring stages). The plates were incubated at 37° C. in CO2 incubator in an atmosphere of 5% CO2 and air mixture. 72 hours later 100 μL of lysis buffer containing 2× concentration of SYBR Green-I (Invitrogen) was added to each well and incubated for one hour at 37° C. The plates were examined at 485±20 nm of excitation and 530±20 nm of emission for relative fluorescence units (RFUs) per well using the fluorescence plate reader (FLX800, BIOTEK). IC50 values were obtained by Logit regression analysis of dose response curves (Singh et al. 2011).

in vitro = settings: monkey
Protocol: The cells were incubated with test sample dilutions for 72 h and MTT was used as reagent for detection of cytotoxicity. Podophyllotoxin (SIGMA) was used as the standard reference drug.

[2] = test system: Chloroquine-resistant (K1) strain of P. falciparum; assay: Malaria SYBR Green I-based fluorescence (MSF) assay, K1 strain; assay type: cell-based; settings: Plasmodium falciparum
Protocol: as §1, §2

[3] = P. falciparum 3D7, 72 hours incubation, read-out: IC50 against 3D7
[4] = 3D7, range given for listed compounds, read-out: IC50 values against 3D7 culture
[5] = K1, range given for listed compounds, read-out: IC50 values against K1 culture
[6] = P. falciparum K1, 72 hours incubation, read-out: IC50 against K1

| SMILES | IC50 [1, 3] | CC50 at 72 h (in vitro) | melting point | IC50 [1, 4] | IC50 [2, 5] | IC50 [2, 6] | IC50 ([1]; 3D7, 72 h, read-out: IC50 against 3D7) | IC50 ([2]; K1, 72 h, read-out: IC50 against K1) |
| --- | --- | --- | --- | --- | --- | --- | --- | --- |
| COc1cc([C@H](CNC(=O)/C=C/c2ccccc2)OC(=O)/C=C/c2ccccc2)cc(OC)c1OC [Compound 6, (R)-2-cinnamamido-1-(3,4,5-trimethoxyphenyl)ethyl cinnamate] | > 5 µM | 5.08 µM | 126 to 127 °C |  |  |  |  |  |
| COc1cccc([C@@H](COC(=O)/C=C/c2ccccc2)OC(=O)/C=C/c2ccccc2)c1 [Compound 15, (S)-1-(3-methoxyphenyl)ethane-1,2-diyl (2E,2′E)-bis(3-phenylacrylate)] | > 5 µM | 61.9 µM | 67 to 69 °C |  |  |  |  |  |
| COc1ccccc1[C@@H](COC(=O)/C=C/c1ccccc1)OC(=O)/C=C/c1ccccc1 [Compound 11, (S)-1-(2-methoxyphenyl)ethane-1,2-diyl (2E,2′E)-bis(3-phenylacrylate)] | 3.8 µM | 14 µM |  | 2 to 7 µM | 1.5 to 4 µM | 3.23 µM |  |  |
| O=C(/C=C/c1ccccc1)OC[C@H](OC(=O)/C=C/c1ccccc1)c1ccc2c(c1)OCO2 [Compound 36, (R)-1-(benzo[d][1,3]dioxol-5-yl)ethane-1,2-diyl(2E,2′E)-bis(3-phenyl acrylate)] | > 5 µM | 56.6 µM | 108 to 110 °C |  |  |  |  |  |
| O=C(/C=C/c1ccccc1)NC[C@H](OC(=O)/C=C/c1ccccc1)c1ccc2c(c1)OCO2 [Compound 34, (R)-1-(benzo[d][1,3]dioxol-5-yl)-2-cinnamamidoethyl cinnamate] | > 5 µM | > 200 µM | 200 to 202 °C |  |  |  |  |  |
| O=C(/C=C/c1ccccc1)OC[C@H](OC(=O)/C=C/c1ccccc1)c1ccccc1 [Compound 28, (R)-1-phenylethane-1,2-diyl (2E,2′E)-bis(3-phenylacrylate)] | > 5 µM | 30.3 µM | 132 to 134 °C |  |  |  |  |  |
| COc1ccccc1[C@H](COC(=O)/C=C/c1ccccc1)OC(=O)/C=C/c1ccccc1 [Compound 12, (R)-1-(2-methoxyphenyl)ethane-1,2-diyl (2E,2′E)-bis(3-phenylacrylate)] | > 5 µM | 51.7 µM |  |  |  |  |  |  |
| O=C(/C=C/c1ccccc1)OC[C@H](OC(=O)/C=C/c1ccccc1)c1cccc2c1OCO2 [Compound 38, (R)-1-(benzo[d][1,3]dioxol-4-yl)ethane-1,2-diyl(2E,2′E)-bis(3-phenyl acrylate)] | 7.42 µM | > 200 µM |  |  |  | > 10 µM |  |  |
| COc1cc([C@@H](COC(=O)/C=C/c2ccccc2)OC(=O)/C=C/c2ccccc2)cc(OC)c1OC [Compound 7, (S)-1-(3,4,5-trimethoxyphenyl)ethane-1,2-diyl(2E,2′E)-bis(3-phenyl acrylate)] | 3.37 µM | 6.44 µM |  | 2 to 7 µM | 1.5 to 4 µM | 3.47 µM |  |  |
| COc1ccc([C@@H](CNC(=O)/C=C/c2cccc(O[Si](C)(C)C(C)(C)C)c2)OC(=O)/C=C/c2cccc(O[Si](C)(C)C(C)(C)C)c2)cc1OC [Compound 47, (S)-2-((E)-3-(3-((tert-butyldimethylsilyl)oxy)phenyl)acrylamido)-1-(3,4-dimethoxyphenyl)ethyl (E)-3-(3-((tert-butyldimethylsilyl)oxy)phenyl)acrylate] | > 10 µM | 52.6 µM |  |  |  | 7.52 µM |  |  |
| COc1cc([C@H](COC(=O)/C=C/c2ccccc2)OC(=O)/C=C/c2ccccc2)cc(OC)c1OC [Compound 8, (R)-1-(3,4,5-trimethoxyphenyl)ethane-1,2-diyl (2E,2′E)-bis(3-phenyl acrylate)] | > 5 µM | 122 µM |  |  |  |  |  |  |
| COc1ccc([C@@H](CNC(=O)/C=C/c2ccccc2)OC(=O)/C=C/c2ccccc2)cc1 [Compound 17, (S)-2-cinnamamido-1-(4-methoxyphenyl)ethyl cinnamate] | > 5 µM |  | 137 to 139 °C |  |  |  |  |  |
| COc1cccc([C@@H](CNC(=O)/C=C/c2ccccc2)OC(=O)/C=C/c2ccccc2)c1OC [Compound 21, (S)-2-cinnamamido-1-(2,3-dimethoxyphenyl)ethyl cinnamate] | > 5 µM | > 200 µM | 105 to 108 °C |  |  |  |  |  |
| CCCC(=O)NC[C@@H](OC(=O)CCC)c1ccc(OC)c(OC)c1 [Compound 45, (S)-2-butyramido-1-(3,4-dimethoxyphenyl)ethyl butyrate] | > 10 µM | 51.8 µM |  |  |  | > 10 µM |  |  |
| COc1ccc([C@H](COC(=O)/C=C/c2ccccc2)OC(=O)/C=C/c2ccccc2)cc1 [Compound 20, (R)-1-(4-methoxyphenyl)ethane-1,2-diyl (2E,2′E)-bis(3-phenylacrylate)] | > 5 µM | 23.3 µM | 76 to 79 °C |  |  |  |  |  |
| Cc1ccc([C@H](COC(=O)/C=C/c2ccccc2)OC(=O)/C=C/c2ccccc2)cc1 [Compound 32, (R)-1-(p-tolyl) ethane-1,2-diyl (2E,2′E)-bis(3-phenylacrylate)] | > 5 µM | > 200 µM | 103 to 105 °C |  |  |  |  |  |
| COc1cccc([C@@H](CNC(=O)/C=C/c2ccccc2)OC(=O)/C=C/c2ccccc2)c1 [Compound 13, (S)-2-cinnamamido-1-(3-methoxyphenyl)ethyl cinnamate] | > 5 µM | 148 µM | 139 to 141 °C |  |  |  |  |  |
| COc1ccc([C@@H](COC(=O)/C=C/c2ccccc2)OC(=O)/C=C/c2ccccc2)cc1 [Compound 19, (S)-1-(4-methoxyphenyl)ethane-1,2-diyl (2E,2′E)-bis(3-phenylacrylate)] | > 5 µM | 33.5 µM | 93 to 96 °C |  |  |  |  |  |
| COc1ccc([C@@H](COC(=O)/C=C/c2ccccc2)OC(=O)/C=C/c2ccccc2)cc1OC [Compound 3, (S)-1-(3,4-dimethoxyphenyl)ethane-1,2-diyl(2E,2′E)-bis(3-phenyl acrylate)] | > 5 µM | 24.3 µM |  |  |  |  |  |  |
| COc1cccc([C@H](CNC(=O)/C=C/c2ccccc2)OC(=O)/C=C/c2ccccc2)c1 [Compound 14, (R)-2-cinnamamido-1-(3-methoxyphenyl)ethyl cinnamate] | > 5 µM | 62.7 µM | 138 to 140 °C |  |  |  |  |  |
| O=C(/C=C/c1ccccc1)OC[C@@H](OC(=O)/C=C/c1ccccc1)c1ccccc1 [Compound 27, (S)-1-phenylethane-1,2-diyl (2E,2′E)-bis(3-phenylacrylate)] | > 5 µM | 39.1 µM | 131 to 133 °C |  |  |  |  |  |
| O=C(/C=C/c1ccccc1)OC[C@@H](OC(=O)/C=C/c1ccccc1)c1ccc2c(c1)OCO2 [Compound 35, (S)-1-(benzo[d][1,3]dioxol-5-yl)ethane-1,2-diyl(2E,2′E)-bis(3-phenyl acrylate)] | > 5 µM | 31.8 µM | 106 to 107 °C |  |  |  |  |  |
| CCN(CC)CCCC(C)Nc1ccnc2cc(Cl)ccc12 (centres unmarked) [CQ, Chloroquine, reference compound] |  |  |  |  |  |  | 0.005 µM | 0.25 ± 0.02 µM |
| COc1ccc([C@H](COC(=O)/C=C/c2ccccc2)OC(=O)/C=C/c2ccccc2)cc1OC [Compound 4, (R)-1-(3,4-dimethoxyphenyl)ethane-1,2-diyl (2E,2′E)-bis(3-phenyl acrylate)] | > 5 µM | 5.87 µM |  |  |  | > 5 µM |  |  |
| COc1cccc([C@@H](COC(=O)/C=C/c2ccccc2)OC(=O)/C=C/c2ccccc2)c1OC [Compound 23, (S)-1-(2,3-dimethoxyphenyl)ethane-1,2-diyl (2E,2′E)-bis(3-phenyl acrylate)] | > 5 µM | 28.4 µM |  |  |  |  |  |  |
| O=C(/C=C/c1ccccc1)OC[C@@H](OC(=O)/C=C/c1ccccc1)c1cccc2c1OCO2 [Compound 37, (S)-1-(benzo[d][1,3]dioxol-4-yl)ethane-1,2-diyl(2E,2′E)-bis(3-phenyl acrylate)] | > 10 µM | > 200 µM |  |  |  | > 10 µM |  |  |
| COc1ccc([C@H](CNC(=O)/C=C/c2ccccc2)OC(=O)/C=C/c2ccccc2)cc1 [Compound 18, (R)-2-cinnamamido-1-(4-methoxyphenyl)ethyl cinnamate] | > 5 µM |  | 138 to 140 °C |  |  |  |  |  |
| COc1cccc([C@H](COC(=O)/C=C/c2ccccc2)OC(=O)/C=C/c2ccccc2)c1 [Compound 16, (R)-1-(3-methoxyphenyl)ethane-1,2-diyl (2E,2′E)-bis(3-phenylacrylate)] | > 5 µM | 22.3 µM | 67 to 69 °C |  |  |  |  |  |
| COc1ccc([C@@H](CNC(=O)/C=C/c2ccccc2O[Si](C)(C)C(C)(C)C)OC(=O)/C=C/c2ccccc2O[Si](C)(C)C(C)(C)C)cc1OC [Compound 46, (S)-2-((E)-3-(2-((tert-butyldimethylsilyl)oxy)phenyl)acrylamido)-1-(3,4-dimethoxyphenyl)ethyl (E)-3-(2-((tert-butyldimethylsilyl)oxy)phenyl)acrylate] | 8.49 µM | 58.9 µM |  |  |  | 4.56 µM |  |  |
| COc1cccc([C@H](COC(=O)/C=C/c2ccccc2)OC(=O)/C=C/c2ccccc2)c1OC [Compound 24, (R)-1-(2,3-dimethoxyphenyl)ethane-1,2-diyl(2E,2′E)-bis(3-phenyl acrylate)] | > 5 µM | 82.7 µM |  |  |  |  |  |  |
